Experiments:
[1] = system: rape; experiment: Test B pre/postemergence rape; assay type: in vivo, Brassica napus; details: for Rape plant response rating: scale of 0 to 10 where 0 is no effect and 10 is complete control
Procedure, shortened: (§1)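 Test chemicals in a non-phytotoxic solvent mixture with surfactant were sprayed preemergence onto planted seeds and postemergence onto plants 2 to 18 cm tall (1- to 4-leaf stage). After twelve to sixteen days in a greenhouse, injury was visually rated against untreated controls from 0 (no effect) to 10 (complete control).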

[2] = system: cocklebur; experiment: Test B pre/postemergence cocklebur; assay type: in vivo, Xanthium strumarium; details: for Cocklebur plant response rating: scale of 0 to 10 where 0 is no effect and 10 is complete control
Procedure, shortened: as §1

[3] = system: duck salad; experiment: Test B flood test duck salad; assay type: in vivo, Heteranthera limosa
Procedure, shortened: (§2)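 Flood test on plants grown to the 2-leaf stage; treated plants kept in greenhouse twelve to sixteen days, then visually rated against controls on a 0 (no effect) to 10 (complete control) scale.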

[4] = system: crabgrass; experiment: Test B pre/postemergence crabgrass; assay type: in vivo, Digitaria sanguinalis; details: for Crabgrass plant response rating: scale of 0 to 10 where 0 is no effect and 10 is complete control
Procedure, shortened: as §1

[5] = system: rice; experiment: Test B flood test rice; assay type: in vivo, Oryza sativa
Procedure, shortened: as §2

[6] = system: purple nutsedge; experiment: Test B pre/postemergence purple nutsedge; assay type: in vivo, Cyperus rotundus; details: for Nutsedge plant response rating: scale of 0 to 10 where 0 is no effect and 10 is complete control
Procedure, shortened: as §1

[7] = system: velvetleaf; experiment: Test B pre/postemergence velvetleaf; assay type: in vivo, Abutilon theophrasti; details: for Velvetleaf plant response rating: scale of 0 to 10 where 0 is no effect and 10 is complete control
Procedure, shortened: as §1

[8] = system: sugar beet; experiment: Test B pre/postemergence sugar beet; assay type: in vivo, Beta vulgaris; details: for Sugarbeets plant response rating: scale of 0 to 10 where 0 is no effect and 10 is complete control
Procedure, shortened: as §1

[9] = system: giant foxtail; experiment: Test B pre/postemergence giant foxtail; assay type: in vivo, Setaria faberii; details: for Giant foxtail plant response rating: scale of 0 to 10 where 0 is no effect and 10 is complete control
Procedure, shortened: as §1

[10] = system: morningglory; experiment: Test B pre/postemergence morningglory; assay type: in vivo, Ipomoea hederacea; details: for Morningglory plant response rating: scale of 0 to 10 where 0 is no effect and 10 is complete control
Procedure, shortened: as §1

[11] = system: soybean; experiment: Test B pre/postemergence soybean; assay type: in vivo, Glycine max; details: for Soybean plant response rating: scale of 0 to 10 where 0 is no effect and 10 is complete control
Procedure, shortened: as §1

[12] = system: smallflower flatsedge; experiment: Test B flood test smallflower flatsedge; assay type: in vivo, Cyperus difformis
Procedure, shortened: as §2

[13] = system: pigweed; experiment: Test B pre/postemergence pigweed; assay type: in vivo, Amaranthus retroflexus; details: for Redroot pigweed plant response rating: scale of 0 to 10 where 0 is no effect and 10 is complete control
Procedure, shortened: as §1

[14] = system: wheat; experiment: Test B pre/postemergence wheat; assay type: in vivo, Triticum aestivum; details: for Wheat plant response rating: scale of 0 to 10 where 0 is no effect and 10 is complete control
Procedure, shortened: as §1

[15] = system: blackgrass; experiment: Test B pre/postemergence blackgrass; assay type: in vivo, Alopecurus myosuroides; details: for Blackgrass plant response rating: scale of 0 to 10 where 0 is no effect and 10 is complete control
Procedure, shortened: as §1

[16] = system: corn; experiment: Test B pre/postemergence corn; assay type: in vivo, Zea mays; details: for Corn plant response rating: scale of 0 to 10 where 0 is no effect and 10 is complete control
Procedure, shortened: as §1

[17] = Postemergence, Rate 125 g/ha, scale 0 to 10, 0 is no effect, 10 is complete control
[18] = Postemergence, Rate 250 g/ha, scale 0 to 10, 0 is no effect, 10 is complete control
[19] = Preemergence, Rate 62 g/ha, scale 0 to 10 (0 no effect, 10 complete control)
[20] = Rate 500 g/ha, Postemergence, scale 0 to 10, 0 no effect, 10 complete control
[21] = Postemergence (flood test), Rate 125 g/ha, scale 0 to 10, 0 is no effect, 10 is complete control
[22] = Rate 62 g/ha, Postemergence (flood test species), scale of 0 to 10 where 0 is no effect and 10 is complete control
[23] = Rate 500 g/ha, listed under Postemergence (flood test species), scale 0 to 10, 0 no effect, 10 complete control
[24] = flood test species, listed under Postemergence, Rate 250 g/ha, scale 0 to 10, 0 is no effect, 10 is complete control

With `CCN(CC)C(=O)n1oc(=O)n(-c2ccccc2C)c1=O` [Compound 364] the “Plant response rating, Rape” value [1, 17] was 0, the “Plant response rating, Rape” value [1, 18] was 0 and the “Plant response rating, Rape” value [1, 19] was 0. For the same compound, the “Rape plant response rating (0 to 10 scale)” value ([1]; Preemergence, Rate 125 g/ha) was 0, the “Rape plant response rating” value ([1]; Preemergence, Rate 250 g/ha) was 0 and the “Rape plant response rating” value ([1]; Preemergence, Rate 500 g/ha) was 2. For the same compound, the “Rape plant response rating” value ([1]; Rate 62 g/ha, Postemergence) was 0, the “Plant response rating, Rape” value [1, 20] was 0 and the “Plant response rating, Cocklebur” value [2, 17] was 0. The “Plant response rating, Cocklebur” value [2, 18] was 0, the “Plant response rating, Cocklebur” value [2, 19] was 0 and the “Cocklebur plant response rating (0 to 10 scale)” value ([2]; Preemergence, Rate 125 g/ha) was 0. The “Cocklebur plant response rating” value ([2]; Preemergence, Rate 250 g/ha) was 0, the “Cocklebur plant response rating” value ([2]; Preemergence, Rate 500 g/ha) was 0 and the “Cocklebur plant response rating” value ([2]; Rate 62 g/ha, Postemergence) was 0. For the same compound, the “Plant response rating, Cocklebur” value [2, 20] was 2, the “Plant response rating, Ducksalad” value [3, 21] was 0 and the “Ducksalad plant response rating” value [3, 22] was 0. The “Plant response rating, Ducksalad” value [3, 23] was 0, the “Plant response rating, Ducksalad” value [3, 24] was 0 and the “Plant response rating, Crabgrass” value [4, 17] was 0. The “Plant response rating, Crabgrass” value [4, 18] was 0, the “Plant response rating, Crabgrass” value [4, 19] was 0 and the “Crabgrass plant response rating (0 to 10 scale)” value ([4]; Preemergence, Rate 125 g/ha) was 0. For the same compound, the “Crabgrass plant response rating” value ([4]; Preemergence, Rate 250 g/ha) was 2, the “Crabgrass plant response rating” value ([4]; Preemergence, Rate 500 g/ha) was 5 and the “Crabgrass plant response rating” value ([4]; Rate 62 g/ha, Postemergence) was 0. The “Plant response rating, Crabgrass” value [4, 20] was 2, the “Plant response rating, Rice” value [5, 21] was 0 and the “Rice plant response rating” value [5, 22] was 0. For the same compound, the “Plant response rating, Rice” value [5, 23] was 0, the “Plant response rating, Rice” value [5, 24] was 0 and the “Plant response rating, Nutsedge” value [6, 17] was 0. The “Plant response rating, Nutsedge” value [6, 18] was 0, the “Plant response rating, Nutsedge” value [6, 19] was 0 and the “Nutsedge plant response rating (0 to 10 scale)” value ([6]; Preemergence, Rate 125 g/ha) was 0. For the same compound, the “Nutsedge plant response rating” value ([6]; Preemergence, Rate 250 g/ha) was 0, the “Nutsedge plant response rating” value ([6]; Rate 62 g/ha, Postemergence) was 0 and the “Plant response rating, Nutsedge” value [6, 20] was 0. The “Plant response rating, Velvetleaf” value [7, 17] was 0, the “Plant response rating, Velvetleaf” value [7, 18] was 0 and the “Plant response rating, Velvetleaf” value [7, 19] was 0. For the same compound, the “Velvetleaf plant response rating (0 to 10 scale)” value ([7]; Preemergence, Rate 125 g/ha) was 0, the “Velvetleaf plant response rating” value ([7]; Preemergence, Rate 250 g/ha) was 0 and the “Velvetleaf plant response rating” value ([7]; Preemergence, Rate 500 g/ha) was 0. The “Velvetleaf plant response rating” value ([7]; Rate 62 g/ha, Postemergence) was 0, the “Plant response rating, Velvetleaf” value [7, 20] was 0 and the “Plant response rating, Sugarbeets” value [8, 17] was 0. The “Plant response rating, Sugarbeets” value [8, 18] was 0, the “Plant response rating, Sugarbeets” value [8, 19] was 0 and the “Sugarbeets plant response rating (0 to 10 scale)” value ([8]; Preemergence, Rate 125 g/ha) was 0. For the same compound, the “Sugarbeets plant response rating” value ([8]; Preemergence, Rate 250 g/ha) was 0, the “Sugarbeets plant response rating” value ([8]; Preemergence, Rate 500 g/ha) was 0 and the “Sugarbeets plant response rating” value ([8]; Rate 62 g/ha, Postemergence) was 0. For the same compound, the “Plant response rating, Sugarbeets” value [8, 20] was 1, the “Plant response rating, Giant foxtail” value [9, 17] was 3 and the “Plant response rating, Giant foxtail” value [9, 18] was 6. For the same compound, the “Plant response rating, Giant foxtail” value [9, 19] was 3, the “Giant foxtail plant response rating (0 to 10 scale)” value ([9]; Preemergence, Rate 125 g/ha) was 6 and the “Giant foxtail plant response rating” value ([9]; Preemergence, Rate 250 g/ha) was 9. The “Giant foxtail plant response rating” value ([9]; Preemergence, Rate 500 g/ha) was 10, the “Giant foxtail plant response rating” value ([9]; Rate 62 g/ha, Postemergence) was 0 and the “Plant response rating, Giant foxtail” value [9, 20] was 8. The “Plant response rating, Morningglory” value [10, 17] was 0, the “Plant response rating, Morningglory” value [10, 18] was 0 and the “Plant response rating, Morningglory” value [10, 19] was 0. For the same compound, the “Morningglory plant response rating (0 to 10 scale)” value ([10]; Preemergence, Rate 125 g/ha) was 0, the “Morningglory plant response rating” value ([10]; Preemergence, Rate 250 g/ha) was 0 and the “Morningglory plant response rating” value ([10]; Preemergence, Rate 500 g/ha) was 0. The “Morningglory plant response rating” value ([10]; Rate 62 g/ha, Postemergence) was 0, the “Plant response rating, Morningglory” value [10, 20] was 4 and the “Plant response rating, Soybean” value [11, 17] was 2. For the same compound, the “Plant response rating, Soybean” value [11, 18] was 3, the “Plant response rating, Soybean” value [11, 19] was 0 and the “Soybean plant response rating (0 to 10 scale)” value ([11]; Preemergence, Rate 125 g/ha) was 0. For the same compound, the “Soybean plant response rating” value ([11]; Preemergence, Rate 250 g/ha) was 0, the “Soybean plant response rating” value ([11]; Preemergence, Rate 500 g/ha) was 0 and the “Soybean plant response rating” value ([11]; Rate 62 g/ha, Postemergence) was 0. For the same compound, the “Plant response rating, Soybean” value [11, 20] was 3, the “Plant response rating, S. Flatsedge” value [12, 21] was 0 and the “S. Flatsedge plant response rating” value [12, 22] was 0. The “Plant response rating, S. Flatsedge” value [12, 23] was 3, the “Plant response rating, S. Flatsedge” value [12, 24] was 0 and the “Plant response rating, Redroot pigweed” value [13, 17] was 0. The “Plant response rating, Redroot pigweed” value [13, 18] was 0, the “Plant response rating, Redroot pigweed” value [13, 19] was 0 and the “Redroot pigweed plant response rating (0 to 10 scale)” value ([13]; Preemergence, Rate 125 g/ha) was 0. For the same compound, the “Redroot pigweed plant response rating” value ([13]; Preemergence, Rate 250 g/ha) was 0, the “Redroot pigweed plant response rating” value ([13]; Preemergence, Rate 500 g/ha) was 0 and the “Redroot pigweed plant response rating” value ([13]; Rate 62 g/ha, Postemergence) was 0. The “Plant response rating, Redroot pigweed” value [13, 20] was 0, the “Plant response rating, Wheat” value [14, 17] was 0 and the “Plant response rating, Wheat” value [14, 18] was 0. The “Plant response rating, Wheat” value [14, 19] was 0, the “Wheat plant response rating (0 to 10 scale)” value ([14]; Preemergence, Rate 125 g/ha) was 0 and the “Wheat plant response rating” value ([14]; Preemergence, Rate 250 g/ha) was 0. The “Wheat plant response rating” value ([14]; Preemergence, Rate 500 g/ha) was 0, the “Wheat plant response rating” value ([14]; Rate 62 g/ha, Postemergence) was 0 and the “Plant response rating, Wheat” value [14, 20] was 0. The “Plant response rating, Blackgrass” value [15, 17] was 0, the “Plant response rating, Blackgrass” value [15, 18] was 0 and the “Plant response rating, Blackgrass” value [15, 19] was 0. The “Blackgrass plant response rating (0 to 10 scale)” value ([15]; Preemergence, Rate 125 g/ha) was 0, the “Blackgrass plant response rating” value ([15]; Preemergence, Rate 250 g/ha) was 1 and the “Blackgrass plant response rating” value ([15]; Preemergence, Rate 500 g/ha) was 4. The “Blackgrass plant response rating” value ([15]; Rate 62 g/ha, Postemergence) was 0, the “Plant response rating, Blackgrass” value [15, 20] was 2 and the “Plant response rating, Corn” value [16, 17] was 0. For the same compound, the “Plant response rating, Corn” value [16, 18] was 2, the “Plant response rating, Corn” value [16, 19] was 0 and the “Corn plant response rating (0 to 10 scale)” value ([16]; Preemergence, Rate 125 g/ha) was 0. For the same compound, the “Corn plant response rating” value ([16]; Preemergence, Rate 250 g/ha) was 0, the “Corn plant response rating” value ([16]; Preemergence, Rate 500 g/ha) was 0 and the “Corn plant response rating” value ([16]; Rate 62 g/ha, Postemergence) was 0. For the same compound, the “Plant response rating, Corn” value [16, 20] was 3.

— patent publication US6737383B1, “Herbicidal oxadiazolidines” (priority 1999, dated 2004)
